Our source for the EC50 values is BindingDB's records for doi:10.7270/Q2M32T6M (Vanderbilt Screening Center for GPCRs, Ion Channels and …, 2009).

One assay concerns the target T1, Solute carrier family 12 member 5 (Homo sapiens, UniProt Q9H2X9).
T1 sequence (Q9H2X9 whole entry): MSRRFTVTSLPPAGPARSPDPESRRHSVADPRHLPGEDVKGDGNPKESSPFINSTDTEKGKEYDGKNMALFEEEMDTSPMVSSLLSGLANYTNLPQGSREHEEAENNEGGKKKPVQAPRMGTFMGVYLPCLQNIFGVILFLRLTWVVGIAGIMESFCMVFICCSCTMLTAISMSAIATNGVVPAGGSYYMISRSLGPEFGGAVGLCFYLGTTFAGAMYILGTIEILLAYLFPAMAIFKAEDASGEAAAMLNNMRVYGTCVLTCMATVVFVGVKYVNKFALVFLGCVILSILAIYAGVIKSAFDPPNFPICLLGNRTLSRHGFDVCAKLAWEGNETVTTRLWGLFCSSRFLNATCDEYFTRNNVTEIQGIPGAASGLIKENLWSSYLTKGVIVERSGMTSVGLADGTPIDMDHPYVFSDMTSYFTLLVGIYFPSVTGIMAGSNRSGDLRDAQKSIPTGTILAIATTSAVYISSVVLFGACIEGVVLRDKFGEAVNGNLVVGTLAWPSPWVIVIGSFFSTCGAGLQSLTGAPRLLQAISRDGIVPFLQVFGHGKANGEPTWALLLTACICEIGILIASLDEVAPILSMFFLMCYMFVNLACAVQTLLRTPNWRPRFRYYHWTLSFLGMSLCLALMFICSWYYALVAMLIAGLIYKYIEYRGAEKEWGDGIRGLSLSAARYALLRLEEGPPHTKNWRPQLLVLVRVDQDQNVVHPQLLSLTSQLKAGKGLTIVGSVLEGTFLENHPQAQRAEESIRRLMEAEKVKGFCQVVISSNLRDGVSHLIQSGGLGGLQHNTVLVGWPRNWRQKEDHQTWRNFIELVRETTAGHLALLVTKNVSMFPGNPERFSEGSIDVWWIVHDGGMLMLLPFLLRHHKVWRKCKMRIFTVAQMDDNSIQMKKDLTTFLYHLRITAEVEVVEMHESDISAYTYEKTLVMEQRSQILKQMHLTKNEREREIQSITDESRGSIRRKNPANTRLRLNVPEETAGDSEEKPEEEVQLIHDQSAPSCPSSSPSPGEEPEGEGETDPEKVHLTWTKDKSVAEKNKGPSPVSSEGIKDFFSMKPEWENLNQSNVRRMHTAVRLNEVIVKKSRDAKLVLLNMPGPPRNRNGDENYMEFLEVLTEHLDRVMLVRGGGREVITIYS
Description: KCC2 modulator potency by thallium flux, dose response, cell-based, HEK293 KCC2, FluoZin-2 fluorescence (AID 1736).
Conditions: not given
As a reminder, the EC50 is the concentration that produces a half-maximal response. A lower EC50 goes with a more potent agent. Turning to `Cc1cc([N+](=O)[O-])ccc1NCc1ccccc1` [2-methyl-4-nitro-N-(phenylmethyl)aniline], the concentration giving a half-maximal response (EC50) turned out to be 3.75 µM.
On the same count and under the same terms, the value for `O=C(C1CCN(S(=O)(=O)c2cccc3nsnc23)CC1)N1CCc2ccccc2C1` [2-{[1-(2,1,3-benzothiadiazol-4-ylsulfonyl)piperidin-4-yl]carbonyl}-1,2,3,4-tetrahydroisoquinoline] was 23.8 µM; that for `Cc1noc(/C=C/c2ccco2)c1S(=O)(=O)N1CCC(C(=O)N2CCc3ccccc3C2)CC1` [2-{[1-({5-[(E)-2-(2-furyl)vinyl]-3-methylisoxazol-4-yl}sulfonyl)piperidin-4-yl]carbonyl}-1,2,3,4-tetrahydroisoquinoline] was 3.86 µM.
On the same count and under the same terms, with `COc1cc(OC)c(C2=NOC(C(=O)N3CCc4ccccc4C3)C2)cc1Cl` (configuration not stated) [2-{[3-(5-chloro-2,4-dimethoxyphenyl)-4,5-dihydro-5-isoxazolyl]carbonyl}-1,2,3,4-tetrahydroisoquinoline] the figure was 5.55 µM; with `O=C(C1CCN(S(=O)(=O)c2cccs2)CC1)N1CCc2ccccc2C1` [3,4-dihydro-1H-isoquinolin-2-yl-(1-thiophen-2-ylsulfonyl-4-piperidinyl)methanone], 2650 µM; with `O=C(C1CCN(c2nnc(-n3cccc3)s2)CC1)N1CCc2ccccc2C1` [3,4-dihydro-1H-isoquinolin-2-yl-[1-(5-pyrrol-1-yl-1,3,4-thiadiazol-2-yl)-4-piperidyl]methanone], 9.6 µM.
`CC12CC3(C)CC(C)(C1)CC(C(=O)NC(=S)N1CCCC1)(C2)C3` [3,5,7-trimethyl-N-pyrrolidin-1-ylcarbothioyl-adamantane-1-carboxamide]: the EC50 stood at 0.541 µM.
In the case of `CCCCCC(=O)Cc1cc(O)cc2c1C(=O)Oc1cc(O)c(C(=O)O)c(CCCCC)c1O2` [3,8-Dihydroxy-11-oxo-1-(2-oxo-heptyl)-6-pentyl-11H-dibenzo[b,e][1,4]dioxepine-7-carboxylic acid], a half-maximal effect (EC50) was put at 8.19 µM.
The same measure, in the same setting: the value for `Cc1cc(C(=O)COC(=O)CCc2nc3ccccc3s2)c(C)n1C` [3-(1,3-benzothiazol-2-yl)propanoic acid [2-oxo-2-(1,2,5-trimethyl-3-pyrrolyl)ethyl] ester] was 1.94 µM; that for `Cc1ccccc1OCC(=O)NNC(=O)CCN1C(=O)c2ccccc2C1=O` [3-(1,3-dioxo-2-isoindolyl)-N'-[2-(2-methylphenoxy)-1-oxoethyl]propanehydrazide] was 432 µM; that for `Cc1ccc(/C=C2\SC(=S)N(c3c(C)n(C)n(-c4ccccc4)c3=O)C2=O)cc1` [3-(1,5-dimethyl-3-oxo-2-phenyl-2,3-dihydro-1H-pyrazol-4-yl)-5-(4-methylbenzylidene)-2-thioxo-1,3-thiazolidin-4-one] was 2.3 µM.
On the same count and under the same terms, with `O=C(NCCCCc1ccccc1)C1CC(c2ccccc2[N+](=O)[O-])=NO1` (configuration not stated) [3-(2-nitrophenyl)-N-(4-phenylbutyl)-2-isoxazoline-5-carboxamide] the figure was 5.52 µM; with `O=C(CCSCCc1ccccn1)Nc1ccc(Cc2ccncc2)cc1` [3-(2-pyridin-2-ylethylsulfanyl)-N-[4-(pyridin-4-ylmethyl)phenyl]propanamide], 72.4 µM.
Same read-out and setting: the value for `O=S(=O)(NC1CCCC1)c1cccc(S(=O)(=O)N2CCC(n3nnc4ccccc43)CC2)c1` [3-(4-Benzotriazol-1-yl-piperidine-1-sulfonyl)-N-cyclopentyl-benzenesulfonamide] was 4.05 µM.
The compound `CCN(CC)c1ccc2c(C)c(-c3ccc(N)cc3)c(=O)oc2c1` [3-(4-aminophenyl)-7-(diethylamino)-4-methyl-1-benzopyran-2-one] registered an EC50 of 1.15 µM.
The compound `CN1c2ccccc2Oc2nnc(N3CCN(Cc4ccccc4)CC3)cc21` [3-(4-benzylpiperazin-1-yl)-5-methylpyridazino[3,4-b][1,4]benzoxazine] displayed an EC50 of 1.88 µM.
Still for that read-out and setting: with `CCOc1ccc(C(CC(=O)O)NC(=O)C(Sc2ccccc2)c2ccccc2)cc1` (configuration not stated) [3-(4-ethoxyphenyl)-3-[(2-phenyl-2-phenylsulfanyl-ethanoyl)amino]propanoic acid] the figure was 23.3 µM.
Still for that read-out and setting: with `CS/C(=N\Cc1ccc(F)cc1)NS(=O)(=O)c1cccs1` [3-(4-fluorobenzyl)-2-methyl-1-(2-thienylsulfonyl)isothiourea] the figure was 0.498 µM; with `O=C(Cn1cnc2c(nnn2Cc2ccc(F)cc2)c1=O)N1CCN(c2ccccc2)CC1` [3-(4-fluorobenzyl)-6-[2-keto-2-(4-phenylpiperazino)ethyl]triazolo[4,5-d]pyrimidin-7-one], 1.65 µM; with `Cc1ccc(OCCC(=O)OCC(=O)N2c3ccccc3CC2C)cc1` (configuration not stated) [3-(4-methylphenoxy)propanoic acid [2-(2-methyl-2,3-dihydroindol-1-yl)-2-oxoethyl] ester], 2.68 µM.
The same measure, in the same setting: with `COc1cc(OC)c(C2=NOC(C(=O)NCCc3ccccc3)C2)cc1Cl` (configuration not stated) [3-(5-chloranyl-2,4-dimethoxy-phenyl)-N-(2-phenylethyl)-4,5-dihydro-1,2-oxazole-5-carboxamide] the figure was 47.1 µM; with `CCOc1ccc2nc(Sc3cc(O)n(-c4cccc(OC)c4)c3O)sc2c1` [3-(6-Ethoxy-benzothiazol-2-ylsulfanyl)-1-(3-methoxy-phenyl)-pyrrolidine-2,5-dione], 11 µM; with `COC(=O)c1sccc1NC(=S)OC` [3-(methoxycarbothioylamino)thiophene-2-carboxylic acid methyl ester], 1.48 µM.
`O=C(Nc1ccc(Cc2ccncc2)cc1)c1cccc([N+](=O)[O-])c1` [3-Nitro-N-(4-pyridin-4-ylmethyl-phenyl)-benzamide] came in with an EC50 of 4.96 µM.
Same read-out and setting: with `O=C(O)CCn1c(SCc2cccc3ccccc23)nc2ccccc21` [3-[2-(1-naphthalenylmethylthio)-1-benzimidazolyl]propanoic acid] the figure was 0.677 µM; with `O=C(O)CCc1cc(I)c(Oc2ccc(O)c(I)c2)c(I)c1` [3-[4-(4-hydroxy-3-iodophenoxy)-3,5-diiodophenyl]propanoic acid], 4.25 µM; with `Cc1ccc(C(=O)O)cc1-c1ccc(C=C2NC(=O)N(c3ccccc3)C2=O)o1` [3-[5-[(E)-(2,5-dioxo-1-phenylimidazolidin-4-ylidene)methyl]furan-2-yl]-4-methylbenzoic acid], 10.7 µM.
Same read-out and setting: with `O=C(O)CCN(Cc1ccccc1)S(=O)(=O)c1c(Cl)cccc1Cl` [3-[(2,6-dichlorophenyl)sulfonyl-(phenylmethyl)amino]propanoic acid] the figure was 86000 µM.
Same read-out and setting: the value for `Cc1ccc(S(=O)(=O)N(CCC(=O)O)Cc2ccc(Cl)cc2)cc1` [3-[(4-chlorobenzyl)-tosyl-amino]propionic acid] was 2.69 µM; that for `Fc1ccc(CSc2nncn2NC/C=C/c2ccccc2)cc1` [3-[(4-fluorobenzyl)thio]-N-(3-phenyl-2-propen-1-yl)-4H-1,2,4-triazol-4-amine] was 4.5 µM.

Still in this assay, the particulars now being: inactive by the depositor's call.
Compound `CC1=C(C(=O)OCCOc2ccccc2)C(c2ccsc2)NC(=O)N1C` (configuration not stated) [2-phenoxyethyl 3,4-dimethyl-2-oxo-6-thiophen-3-yl-1,6-dihydropyrimidine-5-carboxylate] displayed an EC50 of 61.2 µM.
Compound `Cc1nn(-c2ccccc2)c2sc(C(=O)N(Cc3ccco3)C(C)C(=O)NC(C)(C)C)cc12` (configuration not stated) [3-Methyl-1-phenyl-1H-thieno[2,3-c]pyrazole-5-carboxylic acid (1-tert-butylcarbamoyl-ethyl)-furan-2-ylmethyl-amide] returned an EC50 of 33.2 µM.
